Measured values as given in patent publication US11708348B2, “Protease inhibitors for treatment of coronavirus infections” (The Scripps Research Institute, priority 2021, dated 2023).
Where two headings read alike, the source gives them in different places.

Test system: SARS-CoV-2 strain USA-WA1/2020
Assay: microbe, parasite or virus in culture
Type: cell-based
Details: Severe acute respiratory syndrome coronavirus 2, HeLa-ACE2, 24 h, HeLa-ACE2 cells, SARS-CoV-2 infection, 24 h, read-out: EC50, uM (Hela)

Row | Structure (SMILES) | EC50 (class symbols) [µM] | further results
1 | CC(C)(C)CCC(=O)N1CC2(CC2)C[C@H]1C(=O)N[C@@H](C[C@@H]1CCNC1=O)C(=O)COC(F)(F)F [Compound 459, (S)-5-(4,4-dimethylpentanoyl)-N-((S)-3-oxo-1-((S)-2-oxopyrrolidin-3-yl)-4-(trifluoromethoxy)butan-2-yl)-5-azaspiro[2.4]heptane-6-carboxamide] |  | EC50: < 0.05 µM
2 | COC(C(=O)N1C[C@@H]2CCC[C@@H]2[C@H]1C(=O)N[C@@H](C[C@@H]1CCNC1=O)C(=O)COC(F)(F)F)c1cncc(Cl)n1 (stereo partly drawn) [Compound 621, (1S,3aR,6aS)-2-(2-(6-chloropyrazin-2-yl)-2-methoxyacetyl)-N-((S)-3-oxo-1-((S)-2-oxopyrrolidin-3-yl)-4-(trifluoromethoxy)butan-2-yl)octahydrocyclopenta[c]pyrrole-1-carboxamide] |  | EC50: 0.05 to 0.2 µM
3 | O=C1NCC[C@H]1C[C@H](NC(=O)[C@@H]1CC2(CC2)CN1C(=O)C12CC(C(F)(F)F)(CO1)C2)C(=O)COC(F)(F)F [Compound 317, (6S)—N-[(2S)-3-oxo-1-[(3S)-2-oxopyrrolidin-3-yl]-4-(trifluoromethoxy)butan-2-yl]-5-[4-(trifluoromethyl)-2-oxabicyclo[2.1.1]hexane-1-carbonyl]-5-azaspiro[2.4]heptane-6-carboxamide] | < 0.05 | 
4 | CC(C)C[C@H](NC(=O)C(=O)NC1(C(F)(F)F)CC1)C(=O)N[C@@H](C[C@@H]1CCNC1=O)C(=O)COC(F)(F)F [Compound 237, N1-((S)-4-methyl-1-oxo-1-(((S)-3-oxo-1-((S)-2-oxopyrrolidin-3-yl)-4-(trifluoromethoxy)butan-2-yl)amino)pentan-2-yl)-N2-(1-(trifluoromethyl)-cyclopropyl)oxalamide] | < 0.05 | 
5 | O=C1NCC[C@H]1C[C@H](NC(=O)[C@@H]1CC2(CC2)CN1C(=O)[C@H](O)c1ccccc1)C(=O)COC(F)(F)F [Compound 412, (S)-5-((R)-2-hydroxy-2-phenylacetyl)-N-((S)-3-oxo-1-((S)-2-oxopyrrolidin-3-yl)-4-(trifluoromethoxy)butan-2-yl)-5-azaspiro[2.4]-heptane-6-carboxamide] |  | EC50: 0.05 to 0.2 µM
6 | CC(C)C[C@H](NC(=O)c1cc2cnccc2[nH]1)C(=O)N[C@@H](C[C@@H]1CCNC1=O)C(=O)COc1c(F)c(F)cc(F)c1F [Compound 29, N-((S)-4-methyl-1-oxo-1-(((S)-3-oxo-1-((S)-2-oxopyrrolidin-3-yl)-4-(2,3,5,6-tetrafluorophenoxy)butan-2-yl)amino)pentan-2-yl)-1H-pyrrolo[3,2-c]pyridine-2-carboxamide] | < 0.05 | 
7 | CC[C@@H](C)[C@@H](O)C(=O)N1CC2(CC2)C[C@H]1C(=O)N[C@@H](C[C@@H]1CCNC1=O)C(=O)COC(F)(F)F [Compound 380, (S)-5-((2R,3R)-2-hydroxy-3-methylpentanoyl)-N-((S)-3-oxo-1-((S)-2-oxopyrrolidin-3-yl)-4-(trifluoromethoxy)butan-2-yl)-5-azaspiro[2.4]-heptane-6-carboxamide] | 0.05 to 0.2 | 
8 | CC(C)(C)NC(=O)C(=O)N1C[C@H]2C[C@]1(C(=O)N[C@@H](C[C@@H]1CCNC1=O)C(=O)COC(F)(F)F)C2 [Compound 560, (1s,4R)-2-(2-(tert-butylamino)-2-oxoacetyl)-N-((S)-3-oxo-1-((S)-2-oxopyrrolidin-3-yl)-4-(trifluoromethoxy)butan-2-yl)-2-azabicyclo-[2.1.1]hexane-1-carboxamide] |  | EC50 (given as bound): > 1 µM
9 | CC(C)(NC(=O)C(=O)N1C[C@H]2[C@@H]([C@H]1C(=O)N[C@@H](C[C@@H]1CCNC1=O)C(=O)COC(F)(F)F)C2(C)C)C(F)F [Compound 555, (1R,2S,5S)-3-(2-((l,l-difluoro-2-methylpropan-2-yl)amino)-2-oxoacetyl)-6,6-dimethyl-N-((S)-3-oxo-1-((S)-2-oxopyrrolidin-3-yl)-4-(trifluoromethoxy)butan-2-yl)-3-azabicyclo-[3.1.0]hexane-2-carboxamide] |  | EC50: < 0.05 µM
10 | CN(C(=O)C(=O)NC(C)(C)C)[C@H](C(=O)N[C@@H](C[C@@H]1CCNC1=O)C(=O)COC(F)(F)F)C1CCCC1 [Compound 529, N1-(tert-butyl)-N2-((S)-1-cyclopentyl-2-oxo-2-(((S)-3-oxo-1-((S)-2-oxopyrrolidin-3-yl)-4-(trifluoromethoxy)butan-2-yl)amino)ethyl)-N2-methyloxalamide] |  | EC50: 0.05 to 0.2 µM
11 | CC[C@@H](O)C(=O)N1[C@H](C(=O)N[C@@H](C[C@@H]2CCNC2=O)C(=O)COC(F)(F)F)C[C@@H]2CCC[C@@H]21 [Compound 374, (2S,3aS,6aS)-1-((R)-2-hydroxybutanoyl)-N-((S)-3-oxo-1-((S)-2-oxopyrrolidin-3-yl)-4-(trifluoromethoxy)butan-2-yl)octahydrocyclo-penta[b]pyrrole-2-carboxamide] | 0.5 to 1 | 
12 | CC(C)(O)C(=O)N1C[C@@H]2CCC[C@@H]2[C@H]1C(=O)N[C@@H](C[C@@H]1CCNC1=O)C(=O)COC(F)(F)F [Compound 352, (1S,3aR,6aS)-2-(2-hydroxy-2-methylpropanoyl)-N-((S)-3-oxo-1-((S)-2-oxopyrrolidin-3-yl)-4-(trifluoromethoxy)butan-2-yl)octahydrocyclo-penta[c]pyrrole-1-carboxamide] | 0.05 to 0.2 | 
13 | O=C(N[C@@H](CC1CC1)C(=O)N[C@@H](C[C@@H]1CCNC1=O)C(=O)COC(F)(F)F)c1ncc(-c2ccccc2)[nH]1 [Compound 223, N-((S)-3-cyclopropyl-1-oxo-1-(((S)-3-oxo-1-((S)-2-oxopyrrolidin-3-yl)-4-(trifluoromethoxy)butan-2-yl)amino)propan-2-yl)-5-phenyl-1H-imidazole-2-carboxamide] | < 0.05 | 
14 | CC(C)C[C@H](NC(=O)C(=O)N1CCCc2ccccc21)C(=O)N[C@@H](C[C@@H]1CCNC1=O)C(=O)COc1c(F)c(F)cc(F)c1F [Compound 149, (S)-2-(2-(3,4-dihydroquinolin-1(2H)-yl)-2-oxoacetamido)-4-methyl-N-((S)-3-oxo-l-((S)-2-oxopyrrolidin-3-yl)-4-(2,3,5,6-tetrafluorophenoxy)butan-2-yl)pentanamide] | 0.05 to 0.2 | 
15 | COCc1ccccc1NC(=O)C(=O)N[C@@H](CC(C)C)C(=O)N[C@@H](C[C@@H]1CCNC1=O)C(=O)COC(F)(F)F [Compound 177, N1-(2-(methoxymethyl)phenyl)-N2-((S)-4-methyl-1-oxo-1-(((S)-3-oxo-1-((S)-2-oxopyrrolidin-3-yl)-4-(trifluoromethoxy)butan-2-yl)amino)pentan-2-yl)oxalamide] | < 0.05 | 
16 | CC(C)C[C@H](NC(=O)C1CCN(C(=O)C2CCCC2)CC1)C(=O)N[C@@H](C[C@@H]1CCNC1=O)C(=O)COc1c(F)c(F)cc(F)c1F [Compound 25, l-(cyclopentane-carbonyl)-N-((S)-4-methyl-1-oxo-1-(((S)-3-oxo-1-((S)-2-oxopyrrolidin-3-yl)-4-(2,3,5,6-tetrafluorophenoxy)butan-2-yl)amino)pentan-2-yl)piperidine-4-carboxamide] | 0.5 to 1 | 
17 | CC(C)(C)C[C@H](NC(=O)C(=O)NC1CC(F)(F)C1)C(=O)N[C@@H](C[C@@H]1CCNC1=O)C(=O)COC(F)(F)F [Compound 179, Nl-(3,3-difluorocyclobutyl)-N2-((S)-4,4-dimethyl-1-oxo-1-(((S)-3-oxo-1-((S)-2-oxopyrrolidin-3-yl)-4-(trifluoromethoxy)butan-2-yl)amino)pentan-2-yl)oxalamide] | < 0.05 | 
